We go through three molecules from US20230131943A1, “ANTI-INFECTIVE AND ANTI-VIRAL COMPOUNDS AND COMPOSITIONS” (priority 2020, published 2023).

One data set relates to SARS-CoV-2. The experiment in a line: SARS-CoV-2 virus production in infected CaCo2 cells (fluorescence or luminescence normalized to Hoechst). The settings on record: for Fluorescence ratio: added substances at the fixed concentration indicated, CaCo2 cells, untreated = 0.2.
The next data set concerns Salmonella typhimurium. The data set is described as follows: Inhibition of growth of Salmonella typhimurium (optical density of culture). Format: cell-based. The settings on record: after 9-20 h, no compound 0.943. Here is the method:
(§1) Activity of substances in the inhibition of growth of bacteria. Bacteria including the species Escherichia coli, Bacillus pumilus, Salmonella sp., Micrococcus luteus and Staphylococcus carnosus are cultured in appropriate media (Luria broth for all except S. canosus). Overnight cultures are mixed with fresh medium to reach an optical density at […] of ca. 0.1 AU. These cultures are mixed with solutions of substances to be tested at concentrations ranging from 100 μM to 0.05 μM in a microtitre plate. The growth of the culture is monitored by measuring the optical density at various times after the addition of the inhibitor. Reduction in the rate of increase in optical density corresponds to an inhibition of bacterial growth. In the following tables, the activity of various of the test substances may be observed by reductions in optical density relative to untreated control cultures.

Another data set relates to Staphylococcus carnosus. The data set is described as follows: Inhibition of growth of Staphylococcus carnosus (optical density of culture). Format: cell-based. To be noted: after 9-20 h, no compound 0.887. Here is the method: as §1

Take `CN(C)C(=O)COC(=O)Cc1ccc(OC(=O)c2ccc(NC(=N)N)cc2)cc1` [Camostat, reference compound]: the Fluorescence ratio in the data set on SARS-CoV-2 (0.312 μM of the (first named) compound) is 0.09; in the data set with SARS-CoV-2 (0.625 μM of the (first named) compound), 0.08; with SARS-CoV-2 (1.25 μM of the (first named) compound) it was 0.01; with SARS-CoV-2 (2.5 μM of the (first named) compound) it was 0.03; in the data set on SARS-CoV-2 (5 μM of the (first named) compound) it was 0.07; with SARS-CoV-2 (10 μM of the (first named) compound) it was 0.02. In addition, the “SARS-CoV-2 viral protein production in CaCo2 cells - effect of each substance at 10 μM (% of untreated)” value in the data set with SARS-CoV-2 (10 μM in medium, low values indicate inhibition of viral protein production) is recorded as 2 % of untreated.
For the molecule `CC[C@H]1OC(=O)[C@H](C)[C@@H](O[C@H]2C[C@@](C)(OC)[C@@H](O)[C@H](C)O2)[C@H](C)[C@@H](O[C@@H]2O[C@H](C)CC(N(C)C)[C@H]2O)[C@](C)(O)C[C@@H](C)CN(C)[C@H](C)[C@@H](O[N+](=O)[O-])[C@]1(C)O` (stereo partly drawn) [Compound E-10], the “Absorbance of culture medium at 600 nm” value in the data set with Salmonella typhimurium (0.8 μM) worked out at 0.334; in the data set on Salmonella typhimurium (2 μM) it was 0.361; with Salmonella typhimurium (3 μM) it was 0.402; in the data set on Salmonella typhimurium (6 μM) it was 0.382; in the data set with Salmonella typhimurium (13 μM), 0.399; with Salmonella typhimurium (25 μM), 0.390. For the same molecule, the “Absorbance of culture medium at 600 nm” value in the data set with Salmonella typhimurium (50 μM) was 0.315; with Salmonella typhimurium (100 μM) it was 0.280; with Staphylococcus carnosus (0.8 μM), 0.862; with Staphylococcus carnosus (2 μM), 0.826; in the data set with Staphylococcus carnosus (3 μM) it was 0.768; in the data set with Staphylococcus carnosus (6 μM), 0.699. Moreover, the “Absorbance of culture medium at 600 nm” value with Staphylococcus carnosus (13 μM) was 0.702; with Staphylococcus carnosus (25 μM), 0.595; in the data set on Staphylococcus carnosus (50 μM), 0.433; with Staphylococcus carnosus (100 μM) it was 0.576.
As to `CC[C@H]1OC(=O)[C@H](C)[C@@H](O[C@H]2C[C@@](C)(OC)[C@@H](O[N+](=O)[O-])[C@H](C)O2)[C@H](C)[C@@H](O[C@@H]2O[C@H](C)C[C@H](N(C)C)[C@H]2O)[C@](C)(O)C[C@@H](C)CN(C)[C@H](C)[C@@H](O)[C@]1(C)O` [Compound E-1, (2S,3S,4R,6R)-6-(((2R,3S,4R,5R,8R,10R,11R,12S,13S, 14R)-11-(((2S,3R,4S,6R)-4-(dimethylamino)-3-hydroxy-6-methyltetrahydro-2H-pyran-2-yl)oxy)-2-ethyl-3,4,10-trihydroxy-3,5,6,8,10,12,14-heptamethyl-15-oxo-1-oxa-6-azacyclopentadecan-13-yl)oxy)-4-methoxy-2,4-dimethyltetrahydro-2H-pyran-3-yl nitrate], the “Absorbance of culture medium at 600 nm” value is given as 0.722 with Salmonella typhimurium (0.8 μM); 0.761 in the data set on Salmonella typhimurium (2 μM); 0.711 in the data set with Salmonella typhimurium (3 μM); 0.741 with Salmonella typhimurium (6 μM); 0.722 in the data set with Salmonella typhimurium (13 μM); 0.736 in the data set on Salmonella typhimurium (25 μM). For the same molecule, the “Absorbance of culture medium at 600 nm” value in the data set with Salmonella typhimurium (50 μM) came out at 0.484; in the data set on Salmonella typhimurium (100 μM), 0.557; in the data set on Staphylococcus carnosus (0.8 μM) it was 0.902; in the data set with Staphylococcus carnosus (2 μM) it was 0.856; in the data set with Staphylococcus carnosus (3 μM) it was 0.864; in the data set with Staphylococcus carnosus (6 μM), 0.625. The “Absorbance of culture medium at 600 nm” value was found to be 0.068 with Staphylococcus carnosus (13 μM), 0.078 in the data set on Staphylococcus carnosus (25 μM), 0.096 in the data set with Staphylococcus carnosus (50 μM) and 0.157 in the data set with Staphylococcus carnosus (100 μM).
